Test results: US4923963A, “Bradykinin antagonist peptides” (Nova Technology Limited Partnership, priority 1987, dated 1990)
Read-outs that look alike come from different tables or passages of the source. Square brackets hold non-standard residues; d marks the D form. Peptide text beside a SMILES is read from it. dPhe(4-Cl) = N[C@H](Cc1ccc(Cl)cc1)C(=O)O; d2Nal = N[C@H](Cc1ccc2ccccc2c1)C(=O)O; Hyp = O=C(O)[C@@H]1C[C@@H](O)CN1; 2Thi = N[C@@H](Cc1cccs1)C(=O)O; d2Thi = N[C@H](Cc1cccs1)C(=O)O

Assays:
isolated rat uterus = assay type: cell-based; details: for pA2 /RUT: activity class: not quantitated
Experimental: The bradykinin antagonists were assayed on isolated rat uterus in natural or induced estrus and on guinea pig ileum, according to the commonly accepted assay methods for bradykinin and related kinins as described by Trautschold (Handbook of Expt. Pharmacol. Vol 25, Springer Verlag, pp. 53-55, 1970) for inhibition of the myotropic activity of bradykinin. The inhibition potencies, as determined according to the commonly accepted manner described by Schild for antagonists of biologically active compounds (Br. J. Pharmacol. 2:189, 1947), and expressed as pA2 values are determined on isolated rat uterus (RUT) and isolated guinea pig ileum (GPI). In the assays, a dose-response curve is determined for the reference substance bradykinin. The dose of bradykinin which produced a half maximal contraction of tissue is the ED50 dose. An amount of bradykinin equivalent to twice the ED50 dose is administered to the tissue 30 seconds after the start of incubation of the tissue with a dose of antagonist. Doses of antagonist are increased in this protocol until pre-incubation with a dose of antagonist reduces the contraction in response to the double ED50 dose of bradykinin to response of a single ED50 dose of bradykinin. The pA2 value represents the negative logarithm of the molar concentration of antagonist necessary to reduce the response of a double ED50 dose of bradykinin to that of an ED50 dose. One unit of pA2 value represents an order of magnitude change in potency. For comparison, the negative log of the dose of BK, the dose which causes half maximal contraction of the tissues, is commonly known as the pD2 value. The pD2 value for bradykinin is 7.9 on the rat uterus and 7.4 on the guinea pig ileum.

rat blood pressure = test: effects on blood pressure in the anesthetized rat (RBP), intraaortic and intravenous bolus; assay type: in vivo; parameters: RBP-IA: activity class / RBP-IV: activity class: scale not given here
Experimental: The in vivo effects of bradykinin antagonists on blood pressure in the anesthetized rat are determined according to the assay described by Roblero, Ryan and Stewart (Res. Commun. Pathol. Pharmacol. 6:207, 1973). The antagonists also produce inhibition of the bradykinin response when injected as a bolus admixture of bradykinin plus antagonist by either the ia or iv route of administration.

[1] = rat blood pressure, intraaortic bolus
[2] = rat blood pressure, intravenous bolus
[3] = isolated rat uterus, number of tissues in parentheses

`N=C(N)NCCC[C@H](NC(=O)[C@H](CCCCN)NC(=O)[C@@H](N)CCCCN)C(=O)N1CCC[C@H]1C(=O)N1CCC[C@H]1C(=O)NCC(=O)N[C@@H](Cc1cccs1)C(=O)N[C@@H](CO)C(=O)N[C@H](Cc1ccccc1)C(=O)N[C@@H](Cc1cccs1)C(=O)N[C@H](CCCNC(=N)N)C(N)=O` [Example 58, Lys-Lys-Arg-Pro-Pro-Gly-Thi-Ser-DPhe-Thi-DArg-NH2] (H-KKRPPG[2Thi]S[dF][2Thi][dR]-NH2) was tested, and the “pA2 /RUT: agonist potency as percent of BK potency” value (“pA2 /RUT … as percent of BK potency” below) (isolated rat uterus) was 0.02%, the “% DESTR (metabolic breakdown of BK-like agonists in RBP assay)” value (“% DESTR” for short) (rat blood pressure; rat, in vivo) was 60% and the “RBP-IA: agonist potency as percent of BK potency” value (from here on “RBP-IA … as percent of BK potency”) (rat blood pressure; rat, in vivo) was 0.2%. The “RBP-IV: agonist potency as percent of BK potency” value (“RBP-IV … as percent of BK potency” below) (rat blood pressure; rat, in vivo, iv) was 3%.
In the case of `CC[C@@H](C)[C@@H](NC(=O)[C@H](CCCNC(=N)N)NC(=O)[C@H](Cc1ccccc1)NC(=O)[C@@H](Cc1ccccc1)NC(=O)[C@H](CO)NC(=O)[C@H](Cc1ccccc1)NC(=O)CNC(=O)[C@@H]1CCCN1C(=O)[C@@H]1CCCN1C(=O)[C@@H](N)CCCNC(=N)N)C(=O)N[C@@H](Cc1ccc(O)cc1)C(=O)O` [Example 69, Arg-Pro-Pro-Gly-Phe-Ser-DPhe-Phe-Arg-DIle-Tyr] (H-RPPGFS[dF]FR[dI]Y-OH), the “RBP-IA … as percent of BK potency” value (rat blood pressure; [1]) is reported as 0.3%, the “RBP-IV … as percent of BK potency” value (rat blood pressure; [2]) is reported as 2% and the “% DESTR” value (rat blood pressure; relative to BK = 100%) is reported as 75%.
With `N=C(N)NCCC[C@H](NC(=O)[C@H](Cc1cccs1)NC(=O)[C@@H](Cc1ccccc1)NC(=O)[C@H](CO)NC(=O)[C@H](Cc1cccs1)NC(=O)CNC(=O)[C@@H]1CCCN1C(=O)[C@@H]1CCCN1C(=O)[C@H](CCCNC(=N)N)NC(=O)[C@H](CCCCN)NC(=O)[C@@H](N)CCCCN)C(N)=O` [Example 54, Lys-Lys-Arg-Pro-Pro-Gly-Thi-Ser-DPhe-Thi-Arg-NH2] (H-KKRPPG[2Thi]S[dF][2Thi]R-NH2) the “pA2 /RUT … as percent of BK potency” value (isolated rat uterus) was 0.02%.
With `N=C(N)NCCC[C@H](NC(=O)[C@H](Cc1cccs1)NC(=O)[C@@H](Cc1ccccc1)NC(=O)[C@H](CO)NC(=O)[C@H](Cc1cccs1)NC(=O)CNC(=O)[C@@H]1CCCN1C(=O)[C@@H]1CCCN1C(=O)[C@H](N)Cc1ccc2ccccc2c1)C(=O)O` [Example 22, DNal-Pro-Pro-Gly-Thi-Ser-DPhe-Thi-Arg] (H-[d2Nal]PPG[2Thi]S[dF][2Thi]R-OH) the “pA2 /RUT (antagonist potency)” value (isolated rat uterus) was 5.6.
`CC[C@H](C)[C@H](NC(=O)[C@H](CCCNC(=N)N)NC(=O)[C@H](Cc1ccccc1)NC(=O)[C@@H](Cc1ccccc1)NC(=O)[C@H](CO)NC(=O)[C@H](Cc1ccccc1)NC(=O)CNC(=O)[C@@H]1CCCN1C(=O)[C@@H]1CCCN1C(=O)[C@@H](N)CCCNC(=N)N)C(=O)N[C@@H](Cc1ccc(O)cc1)C(=O)O` [Example 63, Arg-Pro-Pro-Gly-Phe-Ser-DPhe-Phe-Arg-Ile-Tyr] (H-RPPGFS[dF]FRIY-OH) was tested, and the “pA2 /RUT … as percent of BK potency” value (isolated rat uterus; isolated rat uterus) was 0.6%, the “RBP-IA … as percent of BK potency” value (rat blood pressure; [1]) was 0.2% and the “RBP-IV … as percent of BK potency” value (rat blood pressure; [2]) was 2%. For the same compound, the “% DESTR” value (rat blood pressure; relative to BK = 100%) was 70%.
With `N=C(N)NCCC[C@H](NC(=O)[C@H](Cc1cccs1)NC(=O)[C@@H](Cc1ccccc1)NC(=O)[C@H](CO)NC(=O)[C@H](Cc1cccs1)NC(=O)CNC(=O)[C@@H]1CCCN1C(=O)[C@@H]1CCCN1C(=O)[C@@H](Cc1ccc2ccccc2c1)NC(=O)[C@H](N)Cc1ccc2ccccc2c1)C(=O)O` [Example 25, DNal-DNal-Pro-Pro-Gly-Thi-Ser-DPhe-Thi-Arg] (H-[d2Nal][d2Nal]PPG[2Thi]S[dF][2Thi]R-OH) the “pA2 /RUT (antagonist potency)” value (isolated rat uterus; [3]) was 5.6.
In the case of `N=C(N)NCCC[C@@H](N)C(=O)N[C@@H](CCCNC(=N)N)C(=O)N1CCC[C@H]1C(=O)N1CCC[C@H]1C(=O)NCC(=O)N[C@@H](Cc1cccs1)C(=O)N[C@@H](CO)C(=O)N[C@H](Cc1ccccc1)C(=O)N[C@@H](Cc1cccs1)C(=O)N[C@H](CCCNC(=N)N)C(N)=O` [Example 57, DArg-Arg-Pro-Pro-Gly-Thi-Ser-DPhe-Thi-DArf-NH2] (H-[dR]RPPG[2Thi]S[dF][2Thi][dR]-NH2), the “pA2 /RUT … as percent of BK potency” value (isolated rat uterus; isolated rat uterus) is reported as 0.003%.
For `N=C(N)NCCC[C@@H](N)C(=O)N[C@H](Cc1ccc2ccccc2c1)C(=O)N1CCC[C@H]1C(=O)N1CCC[C@H]1C(=O)NCC(=O)N[C@@H](Cc1cccs1)C(=O)N[C@@H](CO)C(=O)N[C@H](Cc1ccccc1)C(=O)N[C@@H](Cc1cccs1)C(=O)N[C@@H](CCCNC(=N)N)C(=O)O` [Example 23, DArg-DNal-Pro-Pro-Gly-Thi-Ser-DPhe-Thi-Arg] (H-[dR][d2Nal]PPG[2Thi]S[dF][2Thi]R-OH), the “pA2 /RUT (antagonist potency)” value (isolated rat uterus) was 5.8.
For `N=C(N)NCCC[C@@H](N)C(=O)N[C@H](Cc1ccc(Cl)cc1)C(=O)N1CCC[C@H]1C(=O)N1CCC[C@H]1C(=O)NCC(=O)N[C@@H](Cc1ccccc1)C(=O)N[C@@H](CO)C(=O)N[C@H](Cc1cccs1)C(=O)N[C@@H](Cc1ccccc1)C(=O)N[C@@H](CCCNC(=N)N)C(=O)O` [Example 7, DArg-CDF-Pro-Pro-Gly-Phe-Ser-DThi-Phe-Arg] (H-[dR][dPhe(4-Cl)]PPGFS[d2Thi]FR-OH), the “pA2 /RUT: activity class” value (isolated rat uterus; isolated rat uterus) was 0, the “RBP-IA: activity class” value (rat blood pressure; [1]) was 0 and the “RBP-IV: activity class” value (rat blood pressure; [2]) was 0.
In the case of `N=C(N)NCCC[C@H](NC(=O)[C@H](Cc1ccccc1)NC(=O)[C@@H](Cc1ccccc1)NC(=O)[C@H](CO)NC(=O)[C@H](Cc1ccccc1)NC(=O)CNC(=O)[C@@H]1CCCN1C(=O)[C@@H]1CCCN1C(=O)[C@@H](N)CCCNC(=N)N)C(=O)O` [Example 1, Arg-Pro-Pro-Gly-Phe-Ser-DPhe-Phe-Arg] (H-RPPGFS[dF]FR-OH), the “pA2 /RUT (antagonist potency)” value (isolated rat uterus; [3]) is reported as 5.0.
In the case of `N=C(N)NCCC[C@H](NC(=O)[C@H](CCCCN)NC(=O)[C@@H](N)CCCCN)C(=O)N1CCC[C@H]1C(=O)N1CCC[C@H]1C(=O)NCC(=O)N[C@@H](Cc1cccs1)C(=O)N[C@@H](CO)C(=O)N[C@H](Cc1ccccc1)C(=O)N[C@@H](Cc1cccs1)C(=O)N[C@H](CCCNC(=N)N)C(=O)O` [Example 44, Lys-Lys-Arg-Pro-Pro-Gly-Thi-Ser-DPhe-Thi-DArg] (H-KKRPPG[2Thi]S[dF][2Thi][dR]-OH), the “% DESTR” value (rat blood pressure; rat, in vivo) is reported as 0%, the “RBP-IA … as percent of BK potency” value (rat blood pressure; rat, in vivo) is reported as 0.2% and the “RBP-IV … as percent of BK potency” value (rat blood pressure; rat, in vivo, iv) is reported as 14%.
In the case of `CC[C@H](C)[C@H](NC(=O)[C@H](CCCNC(=N)N)NC(=O)[C@H](Cc1cccs1)NC(=O)[C@@H](Cc1ccccc1)NC(=O)[C@H](CO)NC(=O)[C@H](Cc1cccs1)NC(=O)CNC(=O)[C@@H]1CCCN1C(=O)[C@@H]1CCCN1C(=O)[C@@H](N)CCCNC(=N)N)C(=O)N[C@@H](Cc1ccc(O)cc1)C(=O)O` [Example 65, Arg-Pro-Pro-Gly-Thi-Ser-DPhe-Thi-Arg-Ile-Tyr] (H-RPPG[2Thi]S[dF][2Thi]RIY-OH), the “pA2 /RUT … as percent of BK potency” value (isolated rat uterus; isolated rat uterus) is reported as 0.5%, the “RBP-IA … as percent of BK potency” value (rat blood pressure; [1]) is reported as 0.06% and the “RBP-IV … as percent of BK potency” value (rat blood pressure; [2]) is reported as 6%. The “% DESTR” value (rat blood pressure; relative to BK = 100%) was 0%.
With `N=C(N)NCCC[C@H](NC(=O)[C@H](Cc1ccccc1)NC(=O)[C@@H](Cc1cccs1)NC(=O)[C@H](CO)NC(=O)[C@H](Cc1ccccc1)NC(=O)CNC(=O)[C@@H]1C[C@@H](O)CN1C(=O)[C@@H]1CCCN1C(=O)[C@H](N)Cc1cccs1)C(=O)O` [Example 34, DThi Pro-Hyp-Gly-Phe-Ser-DThi-Phe-Arg] (H-[d2Thi]P[Hyp]GFS[d2Thi]FR-OH) the “pA2 /RUT: activity class” value (isolated rat uterus; isolated rat uterus) was 0.
In the case of `CC[C@@H](C)[C@@H](NC(=O)[C@H](CCCNC(=N)N)NC(=O)[C@H](Cc1cccs1)NC(=O)[C@@H](Cc1ccccc1)NC(=O)[C@H](CO)NC(=O)[C@H](Cc1cccs1)NC(=O)CNC(=O)[C@@H]1C[C@@H](O)CN1C(=O)[C@@H]1CCCN1C(=O)[C@@H](N)CCCNC(=N)N)C(=O)N[C@@H](Cc1ccc(O)cc1)C(=O)O` [Example 73, Arg-Pro-Hyp-Gly-Thi-Ser-DPhe-Thi-Arg-DIle-Tyr] (H-RP[Hyp]G[2Thi]S[dF][2Thi]R[dI]Y-OH), the “pA2 /RUT … as percent of BK potency” value (isolated rat uterus; isolated rat uterus) is reported as 0.04%.
For `CC[C@@H](C)[C@@H](NC(=O)[C@H](CCCNC(=N)N)NC(=O)[C@H](Cc1cccs1)NC(=O)[C@@H](Cc1ccccc1)NC(=O)[C@H](CO)NC(=O)[C@H](Cc1cccs1)NC(=O)CNC(=O)[C@@H]1CCCN1C(=O)[C@@H]1CCCN1C(=O)[C@@H](N)CCCNC(=N)N)C(=O)N[C@@H](Cc1ccc(O)cc1)C(=O)O` [Example 71, Arg-Pro-Pro-Gly-Thi-Ser-DPhe-Thi-Arg-DIle-Tyr] (H-RPPG[2Thi]S[dF][2Thi]R[dI]Y-OH), the “RBP-IA … as percent of BK potency” value (rat blood pressure; [1]) was 0.2%, the “RBP-IV … as percent of BK potency” value (rat blood pressure; [2]) was 2% and the “% DESTR” value (rat blood pressure; relative to BK = 100%) was 55%.
With `CC[C@H](C)[C@H](NC(=O)[C@H](CCCNC(=N)N)NC(=O)[C@H](Cc1cccs1)NC(=O)[C@@H](Cc1ccccc1)NC(=O)[C@H](CO)NC(=O)[C@H](Cc1cccs1)NC(=O)CNC(=O)[C@@H]1C[C@@H](O)CN1C(=O)[C@@H]1CCCN1C(=O)[C@@H](N)CCCNC(=N)N)C(=O)N[C@@H](Cc1ccc(O)cc1)C(=O)O` [Example 67, Arg-Pro-Hyp-Gly-Thi-Ser-DPhe-Thi-Arg-Ile-Tyr] (H-RP[Hyp]G[2Thi]S[dF][2Thi]RIY-OH) the “pA2 /RUT … as percent of BK potency” value (isolated rat uterus; isolated rat uterus) was 0.06%.
